Assay results: ChEMBL document CHEMBL5518226, “A Vancomycin-Templated DNA-Encoded Library for Combating Drug-Resistant Bacteria” (2024)
Converted amounts (≈) assume the structure as drawn. The source made the active and inactive calls. The calls are words filed in the database; no cut-off is given here.

Key:
Staphylococcus aureus [1] = experiment: Antibacterial activity against vancomycin-intermediate resistant Staphylococcus aureus Mu50 assessed as reduction in fluorescence at 10 uM incubated for 1 hrs by fluorescence microscopic analysis; assay type: functional, organism-based
Enterococcus faecalis [2] = experiment: Antibacterial activity against vancomycin resistant Enterococcus faecalis clinical isolate 20-1 assessed as inhibition of bacterial growth incubated for 24 hrs by CLSI protocol based broth microdilution method; assay type: functional
Staphylococcus aureus [3] = experiment: Antibacterial activity against methicillin sensitive Staphylococcus aureus clinical isolate 20-45 assessed as inhibition of bacterial growth incubated for 24 hrs by CLSI protocol based broth microdilution method; assay type: functional
Staphylococcus aureus [4] = experiment: Antibacterial activity against methicillin resistant Staphylococcus aureus clinical isolate 20-34 assessed as inhibition of bacterial growth incubated for 24 hrs by CLSI protocol based broth microdilution method; assay type: functional
[5] = system: Staphylococcus epidermidis; experiment: Antibacterial activity against methicillin sensitive Staphylococcus epidermidis clinical isolate 20-1 assessed as inhibition of bacterial growth incubated for 24 hrs by CLSI protocol based broth microdilution method; assay type: functional
Enterococcus faecium [6] = experiment: Antibacterial activity against Enterococcus faecium clinical isolate 20-15 assessed as inhibition of bacterial growth incubated for 24 hrs by CLSI protocol based broth microdilution method; assay type: functional
[7] = system: Staphylococcus epidermidis; experiment: Antibacterial activity against methicillin resistant Staphylococcus epidermidis clinical isolate 20-1 assessed as inhibition of bacterial growth incubated for 24 hrs by CLSI protocol based broth microdilution method; assay type: functional
Staphylococcus aureus [8] = experiment: Antibacterial activity against linezolid resistant Staphylococcus aureus clinical isolate 20-1 assessed as inhibition of bacterial growth incubated for 24 hrs by CLSI protocol based broth microdilution method; assay type: functional
Enterococcus faecium [9] = experiment: Antibacterial activity against Enterococcus faecium clinical isolate 20-16 assessed as inhibition of bacterial growth incubated for 24 hrs by CLSI protocol based broth microdilution method; assay type: functional
Staphylococcus aureus [10] = experiment: Antibacterial activity against vancomycin-intermediate resistant Staphylococcus aureus ATCC700699 assessed as inhibition of bacterial growth incubated for 24 hrs by CLSI protocol based broth microdilution method; assay type: functional
Staphylococcus aureus [11] = experiment: Antibacterial activity against methicillin sensitive Staphylococcus aureus ATCC29213 assessed as inhibition of bacterial growth incubated for 24 hrs by CLSI protocol based broth microdilution method; assay type: functional
Enterococcus faecalis [12] = experiment: Antibacterial activity against Enterococcus faecalis clinical isolate 20-11 assessed as inhibition of bacterial growth incubated for 24 hrs by CLSI protocol based broth microdilution method; assay type: functional
Streptococcus pneumoniae [13] = experiment: Antibacterial activity against penicillin susceptible Streptococcus pneumoniae clinical isolate 20-1 assessed as inhibition of bacterial growth incubated for 24 hrs by CLSI protocol based broth microdilution method; assay type: functional
Streptococcus pneumoniae [14] = experiment: Antibacterial activity against Streptococcus pneumoniae ATCC49619 assessed as inhibition of bacterial growth incubated for 24 hrs by CLSI protocol based broth microdilution method; assay type: functional
Staphylococcus aureus [15] = experiment: Antibacterial activity against methicillin resistant Staphylococcus aureus USA300 assessed as inhibition of bacterial growth incubated for 24 hrs by CLSI protocol based broth microdilution method; assay type: functional
Staphylococcus aureus [16] = experiment: Antibacterial activity against vancomycin-intermediate resistant Staphylococcus aureus Mu50 assessed as reduction in bacterial growth by measuring fold change at 0.0625 to 64 ug/ml incubated for 24 hrs by CLSI protocol based broth microdilution method relative to vancomycin; assay type: functional; conditions: dose 0.0625-64 µg/ml
Staphylococcus aureus [17] = experiment: Antibacterial activity against methicillin sensitive Staphylococcus aureus Newman assessed as inhibition of bacterial growth incubated for 24 hrs by CLSI protocol based broth microdilution method; assay type: functional
Enterococcus faecium [18] = experiment: Antibacterial activity against vancomycin-resistant Enterococcus faecium 0649 assessed as reduction in bacterial growth by measuring fold change at 0.0625 to 64 ug/ml incubated for 24 hrs by CLSI protocol based broth microdilution method relative to vancomycin; assay type: functional; conditions: dose 0.0625-64 µg/ml
Streptococcus pneumoniae [19] = experiment: Antibacterial activity against penicillin resistant Streptococcus pneumoniae clinical isolate 20-1 assessed as inhibition of bacterial growth incubated for 24 hrs by CLSI protocol based broth microdilution method; assay type: functional
Staphylococcus aureus [20] = experiment: Antibacterial activity against vancomycin-intermediate resistant Staphylococcus aureus Mu50 assessed as reduction in bacterial survival at 0.1 mg/ml; assay type: functional, organism-based
Staphylococcus aureus [21] = experiment: Antibacterial activity against vancomycin-intermediate resistant Staphylococcus aureus Mu50 assessed as reduction in bacterial survival at 0.25 to 3 mg/ml; assay type: functional, organism-based; conditions: dose 0.25-3 mg/ml
Enterococcus faecium [22] = experiment: Antibacterial activity against vancomycin-resistant Enterococcus faecium 0649 assessed as reduction in bacterial survival at 3 mg/ml; assay type: functional, organism-based

Structure (SMILES)	MIC (Enterococcus faecalis [2])	MIC (Staphylococcus aureus [3])	MIC (Staphylococcus aureus [4])	MIC [5]	MIC (Enterococcus faecium [6])	MIC [7]	MIC (Staphylococcus aureus [8])	MIC (Enterococcus faecium [9])	MIC (Staphylococcus aureus [10])	MIC (Staphylococcus aureus [11])	MIC (Enterococcus faecalis [12])	MIC (Streptococcus pneumoniae [13])	MIC (Streptococcus pneumoniae [14])	MIC (Staphylococcus aureus [15])	fold change (FC) (Staphylococcus aureus [16])	MIC (Staphylococcus aureus [17])	fold change (FC) (Enterococcus faecium [18])	other results
CC(C)C[C@H](C(=O)N[C@H]1C(=O)N[C@@H](CC(N)=O)C(=O)N[C@H]2C(=O)N[C@H]3C(=O)N[C@H](C(=O)N[C@H](C(=O)O)c4cc(O)cc(O)c4-c4cc3ccc4O)[C@H](O)c3ccc(c(Cl)c3)Oc3cc2cc(c3O[C@@H]2O[C@H](CO)[C@@H](O)[C@H](O)[C@H]2O[C@H]2C[C@](C)(N)[C@H](O)[C@H](C)O2)Oc2ccc(cc2Cl)[C@H]1O)N(C)C(=S)Nc1ccc2c(c1)C(=O)OC21c2ccc(O)cc2Oc2cc(O)ccc21	–	–	–	–	–	–	–	–	–	–	–	–	–	–	–	–	–	Activity (Staphylococcus aureus [1]): inactive
C[C@H]1COc2c(N3CCN(C)CC3)c(F)cc3c(=O)c(C(=O)O)cn1c23 [LEVOFLOXACIN ANHYDROUS]	64 µg/mL (≈ 177 µM)	0.25 µg/mL (≈ 0.692 µM)	16 µg/mL (≈ 44.3 µM)	4 µg/mL (≈ 11.1 µM)	> 64 µg/mL	4 µg/mL (≈ 11.1 µM)	16 µg/mL (≈ 44.3 µM)	64 µg/mL (≈ 177 µM)	8 µg/mL (≈ 22.1 µM)	0.125 µg/mL (≈ 0.346 µM)	1 µg/mL (≈ 2.77 µM)	–	–	–	–	–	–	–
CN[C@H](CC(C)C)C(=O)N[C@H]1C(=O)N[C@@H](CC(N)=O)C(=O)N[C@H]2C(=O)N[C@H]3C(=O)N[C@H](C(=O)N[C@H](C(=O)NCCCc4cn(-c5ccc(OC(F)F)cc5)nn4)c4cc(O)cc(O)c4-c4cc3ccc4O)[C@H](O)c3ccc(c(Cl)c3)Oc3cc2cc(c3O[C@@H]2O[C@H](CO)[C@@H](O)[C@H](O)[C@H]2O[C@H]2C[C@](C)(N)[C@H](O)[C@H](C)O2)Oc2ccc(cc2Cl)[C@H]1O	16 µg/mL (≈ 9.41 µM)	≤ 0.015 µg/mL	0.06 µg/mL (≈ 0.0353 µM)	0.25 µg/mL (≈ 0.147 µM)	≤ 0.015 µg/mL	0.25 µg/mL (≈ 0.147 µM)	–	0.125 µg/mL (≈ 0.0736 µM)	1 µg/mL (≈ 0.588 µM)	≤ 0.015 µg/mL	≤ 0.015 µg/mL	≤ 0.015 µg/mL	≤ 0.015 µg/mL	0.06 µg/mL (≈ 0.0353 µM)	8	0.125 µg/mL (≈ 0.0736 µM)	8	–
CN[C@H](CC(C)C)C(=O)N[C@H]1C(=O)N[C@@H](CC(N)=O)C(=O)N[C@H]2C(=O)N[C@H]3C(=O)N[C@H](C(=O)N[C@H](C(=O)O)c4cc(O)cc(O)c4-c4cc3ccc4O)[C@H](O)c3ccc(c(Cl)c3)Oc3cc2cc(c3O[C@@H]2O[C@H](CO)[C@@H](O)[C@H](O)[C@H]2O[C@H]2C[C@](C)(N)[C@H](O)[C@H](C)O2)Oc2ccc(cc2Cl)[C@H]1O [VANCOMYCIN]	> 64 µg/mL	–	–	–	–	–	–	–	–	–	1 µg/mL (≈ 0.69 µM)	0.25 µg/mL (≈ 0.173 µM)	0.5 µg/mL (≈ 0.345 µM)	–	–	–	–	MIC (Streptococcus pneumoniae [19]): 0.25 µg/mL (≈ 0.173 µM); Activity (Staphylococcus aureus [20]): inactive; Activity (Staphylococcus aureus [21]): Active; Activity (Enterococcus faecium [22]): inactive
CN[C@H](CC(C)C)C(=O)N[C@H]1C(=O)N[C@@H](CC(N)=O)C(=O)N[C@H]2C(=O)N[C@H]3C(=O)N[C@H](C(=O)N[C@H](C(=O)NCCCc4cn(Cc5ccc(Cl)c(Cl)c5)nn4)c4cc(O)cc(O)c4-c4cc3ccc4O)[C@H](O)c3ccc(c(Cl)c3)Oc3cc2cc(c3O[C@@H]2O[C@H](CO)[C@@H](O)[C@H](O)[C@H]2O[C@H]2C[C@](C)(N)[C@H](O)[C@H](C)O2)Oc2ccc(cc2Cl)[C@H]1O	16 µg/mL (≈ 9.32 µM)	0.125 µg/mL (≈ 0.0728 µM)	0.125 µg/mL (≈ 0.0728 µM)	0.25 µg/mL (≈ 0.146 µM)	≤ 0.015 µg/mL	0.25 µg/mL (≈ 0.146 µM)	0.125 µg/mL (≈ 0.0728 µM)	0.06 µg/mL (≈ 0.035 µM)	2 µg/mL (≈ 1.17 µM)	0.125 µg/mL (≈ 0.0728 µM)	0.03 µg/mL (≈ 0.0175 µM)	≤ 0.015 µg/mL	≤ 0.015 µg/mL	≤ 0.015 µg/mL	8	0.03 µg/mL (≈ 0.0175 µM)	8	–
